Laboratory results published in patent US20090156646A1, “PYRIDYLPHENOL COMPOUND AND USE THEREOF” (TAKEDA PHARMACEUTICAL COMPANY LIMITED, priority 2005, published 2009).
Where a name gives a salt, the structure may show the parent alone.

Legend:
[1] = biological target: T1, human metastin receptor hOT7T175 (Homo sapiens, UniProt Q969F8, L364H); test: binding inhibiting activity: 125I-metastin (40-54) binding to cell membrane fraction of h175 KB34 cells; conditions: room temperature 60 minutes, read-out: binding inhibiting activity, represented by the IC50 value
T1 construct: encoding the entire length of human metastin receptor hOT7T175; expressed in transfected cells; host or cells: CHO/dhFr- cells (ATCC #CRL-9096) stably transfected with pAKKO-hOT7T175; clone h175-16 was used as whole cells for FLIPR
T1 sequence (Q969F8 whole entry L364H): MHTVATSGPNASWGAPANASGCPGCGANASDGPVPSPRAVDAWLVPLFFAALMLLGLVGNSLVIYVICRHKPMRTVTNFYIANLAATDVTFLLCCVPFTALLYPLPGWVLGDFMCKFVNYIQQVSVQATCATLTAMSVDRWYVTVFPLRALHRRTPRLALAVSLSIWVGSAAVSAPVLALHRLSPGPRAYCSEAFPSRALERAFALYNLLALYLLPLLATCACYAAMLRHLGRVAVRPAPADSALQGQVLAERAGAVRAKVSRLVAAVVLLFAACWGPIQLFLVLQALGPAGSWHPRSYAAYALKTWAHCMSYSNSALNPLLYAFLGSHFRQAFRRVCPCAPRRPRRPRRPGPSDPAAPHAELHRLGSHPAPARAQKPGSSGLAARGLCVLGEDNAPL
Experimental: cDNA fragments (SEQ ID NO: 2) encoding the entire length of human metastin receptor hOT7T175 were incorporated into expression vector pAKKO1.11H to produce animal cell expression plasmids pAKKO-hOT7T175. CHO/dhFr-cells (ATCC, #CRL-9096) were seeded onto 6 cm culture dishes (Becton Dickinson) at a density of 0.3×10^6 cells/dish, and cultured in the conditions of 48 hours, 37° C. and 5% CO2. 5 μg pAKKO-hOT7T175 plasmid DNA was transfected to the resultant cells by a known method (described in Example 3 of WO 00/24890) using the Cellphect Transfection Kit (Amersham, #27-9268-01). The DNA-transfected cells were cultured in the Dulbecco's modified Eagle medium (DMEM) (Sigma, #D6046) containing 10% dialyzed FBS (Biowest, #S180D), 1× Non-Essential Amino Acid (Invitrogen, #11140-050) and 50 μg/ml Gentamycin (Invitrogen, #15750-060; and cell strains stably expressing the plasmid genes were selected. The obtained 41 clones were treated with the FLIPR assay (in accordance with the method described in Example 3 of WO 00/24890), and the reactivity to the human metastin […] (Nos. 40 to 54 of the human metastin sequence; Peptide Institute, Inc., #4389-v) was evaluated. In the end, h175 KB34 cell strains were selected. By substantially the same method, h175-16 cell strains were also produced.
The h175 KB34 cells were cultured to be on the stage of 40-50% confluency using a cell factory (Nunc, #164327), and then cells were recovered in the following method.
First, the medium was disposed, and the cells were washed twice with 200 ml EDTA/PBS(−). Another 200 ml of EDTA/PBS(−) was added, and the cells were kept still for 20 minutes at room temperature until being peeled off. The cells were recovered into four 50 ml tubes (Becton Dickinson, #352070), and centrifuged (2,000 rpm, 10 min., 4° C.) by a reduced performance centrifuge (TOMY, RL-101). The supernatant was disposed, and the pellets in the four tubes were each suspended with 10 ml EDTA/PBS(−) and collected into one tube (Becton Dickinson, #352070). The pellet was further centrifuged (2,000 rpm, 10 min., 4° C.). The resultant pellet was suspended with 20 ml ice-cooled homogenizer buffer [10 mM NaHCO3, 2 mM EGTA, 0.2 mM magnesium acetate, 10 μg/ml Leupeptin (Peptide Institute, Inc., #4041), 10 μg/ml E-64 (Peptide Institute, Inc., # 4096), 100 μg/ml o-phenanthroline (Dojindo Laboratories), 90 μg/ml PMSF (Wako Pure Chemical Industries, Ltd.), 10 μg/ml Pepstatin A (Peptide Institute, Inc., #4397), pH7.3]. The cell suspension was homogenized 3 times, each for 30 seconds, using a Polytron homogenizer. The resultant homogenate was centrifuged (2,500 rpm, 10 min, 4° C.) using a high performance refrigerated centrifuge (Hitachi, Ltd., CR26H). The supernatant was recovered into a super-centrifuge tube, and super-centrifuged (30,000 rpm, 60 min, 4° C.) using a super-centrifuge (Hitachi, Ltd., SCP70H). 3 ml homogenizer buffer was added to the resultant pellet, and the pellet was suspended by pipetting. 3 ml glycerol (Wako Pure Chemical Industries, Ltd.) was added to the resultant suspension and diluted 2-folds. The resultant substance was used as a cell membrane fraction of the h175 KB34 cells. Each […] of the membrane fraction was put into a 1.5 ml tube (Eppendorf, #0030120.086), stored in a freezer (−30 C) so as not to be frozen, and used for a binding assay.
An assay buffer was prepared on the day of the test by adding, to each 100 ml of an assay basic buffer [20 mM Tris, 2.5 mM Magnesium Acetate, 2 mM EGTA, pH 7.4], 1 mg Leupeptin (Peptide Institute, Inc., 4041), 1 mg E-64 (Peptide Institute, Inc., 4096), 10 mg o-phenanthroline (Dojindo Laboratories), 9 mg PMSF (Wako Pure Chemical Industries, Ltd.) and 1 mg Pepstatin A (Peptide Institute, Inc., 4397). The prepared assay buffer was stored at 4° C. until being used. When the measurement was to be performed with no BSA, the above-described assay buffer was used. […]

Compound	IC50 [1]	melting point
Cl.N#Cc1c(-c2cccc(C(=O)NCCCn3ccnc3)c2)cc(-c2ccc(Cl)cc2O)nc1NC(=O)c1nccs1 [Example 250, N-{6-(4-chloro-2-hydroxyphenyl)-3-cyano-4-[3-({[3-(1H-imidazol-1-yl)propyl]amino}carbonyl)phenyl]pyridin-2-yl}-1,3-thiazole-2-carboxamide hydrochloride]	≤ 10 µM	208 to 212 °C
CC(=O)NCCNc1cccc(-c2cc(-c3ccc(F)cc3O)nc(NC(=O)c3ccco3)c2C#N)c1 [Example 307, N-[4-(3-{[2-(acetylamino)ethyl]amino}phenyl)-3-cyano-6-(4-fluoro-2-hydroxyphenyl)pyridin-2-yl]-2-furamide]	≤ 10 µM	158 to 160 °C
CC(N)CC(=O)Nc1cccc(-c2cc(-c3ccc(F)cc3O)nc(NC(=O)c3ccco3)c2C#N)c1.Cl (stereo not drawn) [Example 337, N-[4-{3-[(3-aminobutanoyl)amino]phenyl}-3-cyano-6-(4-fluoro-2-hydroxyphenyl)pyridin-2-yl]-2-furamide hydrochloride]	≤ 10 µM	213 to 215 °C
Cl.N#Cc1c(-c2cccc(NC(=O)[C@H]3CCCN3)c2)cc(-c2ccc(Cl)cc2O)nc1NC(=O)c1ccco1 [Example 296, N-{3-[6-(4-chloro-2-hydroxyphenyl)-3-cyano-2-(2-furoylamino)pyridin-4-yl]phenyl}-D-prolinamide hydrochloride]	≤ 10 µM	208 to 213 °C
CCN(CC)[C@@H](COC)C(=O)Nc1cccc(-c2cc(-c3ccc(F)cc3O)nc(NC(=O)c3ccco3)c2C#N)c1.Cl [Example 306, N-[3-cyano-4-{3-[(N,N-diethyl-O-methyl-L-seryl)amino]phenyl}-6-(4-fluoro-2-hydroxyphenyl)pyridin-2-yl]-2-furamide hydrochloride]	≤ 10 µM	192 to 196 °C
CCN(CC)C(C)CC(=O)Nc1cccc(-c2cc(-c3ccc(F)cc3O)nc(NC(=O)c3ccco3)c2C#N)c1.Cl (stereo not drawn) [Example 339, N-[3-cyano-4-(3-{[3-(diethylamino)butanoyl]amino}phenyl)-6-(4-fluoro-2-hydroxyphenyl)pyridin-2-yl]-2-furamide hydrochloride]	≤ 10 µM	193 to 195 °C
CCN(CC)CC(=O)Nc1cccc(-c2cc(-c3ccc(F)cc3O)nc(NC(=O)c3ccco3)c2C#N)c1.Cl [Example 315, N-[3-cyano-4-{3-[(N,N-diethylglycyl)amino]phenyl}-6-(4-fluoro-2-hydroxyphenyl)pyridin-2-yl]-2-furamide hydrochloride]	≤ 10 µM	262 to 263 °C
CCNC(C)CC(=O)Nc1cccc(-c2cc(-c3ccc(F)cc3O)nc(NC(=O)c3ccco3)c2C#N)c1.Cl (stereo not drawn) [Example 320, N-[3-cyano-4-(3-{[3-(ethylamino)butanoyl]amino}phenyl)-6-(4-fluoro-2-hydroxyphenyl)pyridin-2-yl]-2-furamide hydrochloride]	≤ 10 µM	249 to 255 °C
Cl.N#Cc1c(-c2cccc(C(=O)NC3CCNC3)c2)cc(-c2ccc(F)cc2O)nc1NC(=O)c1ccco1 (stereo not drawn) [Example 76, N-(3-cyano-6-(4-fluoro-2-hydroxyphenyl)-4-{3-[(pyrrolidin-3-ylamino)carbonyl]phenyl}pyridin-2-yl)-2-furamide hydrochloride]	≤ 10 µM	225 to 226 °C
Cl.N#Cc1c(-c2cccc(NC(=O)C3CCNC3)c2)cc(-c2ccc(Cl)cc2O)nc1NC(=O)c1ccco1 (stereo not drawn) [Example 241, N-{3-[6-(4-chloro-2-hydroxyphenyl)-3-cyano-2-(2-furoylamino)pyridin-4-yl]phenyl}pyrrolidine-3-carboxamide hydrochloride]	≤ 10 µM	226 to 235 °C
Cl.N#Cc1c(-c2cccc(NC(=O)CCN)c2)cc(-c2ccc(F)cc2O)nc1NC(=O)c1ccco1 [Example 68, N-{4-[3-(β-alanylamino)phenyl]-3-cyano-6-(4-fluoro-2-hydroxyphenyl)pyridin-2-yl}-2-furamide hydrochloride]	≤ 10 µM	269 to 270 °C
N#Cc1c(-c2cccc(NC(=O)CCN)c2)cc(-c2ccc(Cl)cc2O)nc1NC(=O)c1cccs1 [Example 56, N-{4-[3-(β-alanylamino)phenyl]-6-(4-chloro-2-hydroxyphenyl)-3-cyanopyridin-2-yl}thiophene-2-carboxamide trifluoroacetate]	≤ 10 µM	
CN(C)CCN(C)c1cccc(-c2cc(-c3ccc(F)cc3O)nc(NC(=O)c3ccco3)c2C#N)c1 [Example 324, N-[3-cyano-4-{3-[[2-(dimethylamino)ethyl] (methyl)amino]phenyl}-6-(4-fluoro-2-hydroxyphenyl)pyridin-2-yl]-2-furamide]	≤ 10 µM	
N#Cc1c(-c2cccc(NC(=O)CCN)c2)cc(-c2cc(Cl)ccc2O)nc1NC(=O)c1cccs1 [Example 46, N-{4-[3-(β-alanylamino)phenyl]-6-(5-chloro-2-hydroxyphenyl)-3-cyanopyridin-2-yl}thiophene-2-carboxamide trifluoroacetate]	≤ 10 µM	
COc1ccc(C(=O)Nc2nc(-c3ccc(Cl)cc3O)cc(-c3cccc(NC(=O)CCN)c3)c2C#N)c(OC)c1 [Example 255, N-[4-[3-(β-alanylamino)phenyl]-6-(4-chloro-2-hydroxyphenyl)-3-cyanopyridin-2-yl]-2,4-dimethoxybenzamide dihydrochloride]	≤ 10 µM	
COc1ccc(-c2cc(-c3cccc(NC(=O)CCN)c3)c(C#N)c(NC(=O)c3ccccc3)n2)c(O)c1 [Example 50, N-{4-[3-(β-alanylamino)phenyl]-3-cyano-6-(2-hydroxy-4-methoxyphenyl)pyridin-2-yl}benzamide trifluoroacetate]	≤ 10 µM	
N#Cc1c(-c2cccc(NC(=O)[C@@H]3CCCC[C@H]3N)c2)cc(-c2ccc(F)cc2O)nc1NC(=O)c1ccco1 (racemic) [Example 277, N-{4-[3-({[(1SR,2SR)-2-aminocyclohexyl]carbonyl}amino)phenyl]-3-cyano-6-(4-fluoro-2-hydroxyphenyl)pyridin-2-yl}-2-furamide hydrochloride]	≤ 10 µM	
N#Cc1c(-c2cccc(NC(=O)CCN)c2)cc(-c2ccc(Cl)cc2O)nc1NC(=O)c1ccccc1 [Example 51, N-{4-[3-(β-alanylamino)phenyl]-6-(4-chloro-2-hydroxyphenyl)-3-cyanopyridin-2-yl}benzamide trifluoroacetate]	≤ 10 µM	
N#Cc1c(-c2cccc(NC(=O)CCN)c2)cc(-c2ccc(Cl)cc2O)nc1NC(=O)c1ccno1 [Example 251, N-[4-[3-(β-alanylamino)phenyl]-6-(4-chloro-2-hydroxyphenyl)-3-cyanopyridin-2-yl]isoxazole-5-carboxamide hydrochloride]	≤ 10 µM	
